Measured values: patent US7491825B2, “Basic non-peptide bradykinin antagonists and pharmaceutical compositions therefrom” (Menarini Ricerche S.p.A., priority 2002, dated 2009)
Structures can show the parent of a compound that is named as a salt.

Each compound was assayed against T1, human B2 receptor (Homo sapiens, UniProt P30411) (assay: binding to the human B2 receptor expressed in human fibroblasts W138). Conditions: not given.
T1 construct: human B2 receptor expressed in human fibroblasts W138; endogenous in cells; host or cells: human fibroblasts W138 (WI-38)
T1 sequence (P30411 1-391): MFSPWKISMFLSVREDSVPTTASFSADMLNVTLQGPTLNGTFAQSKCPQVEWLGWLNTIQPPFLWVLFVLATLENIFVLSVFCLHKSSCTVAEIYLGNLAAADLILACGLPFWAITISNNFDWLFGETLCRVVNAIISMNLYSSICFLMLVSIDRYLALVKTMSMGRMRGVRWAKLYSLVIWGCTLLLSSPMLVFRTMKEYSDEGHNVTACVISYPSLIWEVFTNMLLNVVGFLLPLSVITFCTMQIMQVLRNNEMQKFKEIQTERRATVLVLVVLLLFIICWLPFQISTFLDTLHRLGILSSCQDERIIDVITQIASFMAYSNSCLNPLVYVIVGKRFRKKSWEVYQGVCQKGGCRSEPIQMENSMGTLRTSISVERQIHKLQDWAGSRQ
Text: In the following the binding values are reported expressed as pKi.

Ki [nM]	Compound
0.631	Cc1ccc2cccc(OCc3c(Cl)ccc(S(=O)(=O)NC(C)(C)C(=O)N4CCN(C(=N)N)CC4)c3Cl)c2n1 [Example 20, 4-{2-[2,4-Dichloro-3-(2-methyl-quinolin-8-yloxymethyl)-benzenesulfonylamino]-2-methyl-propionyl}-piperazine-1-carboxamidine]
0.631	Cc1cc(C)c2cccc(OCc3c(Cl)ccc(S(=O)(=O)NC(C)(C)C(=O)N4CCN(C(=O)[C@@H](N)CCCNC(=N)N)CC4)c3Cl)c2n1 [Example 48, N-[2-[4-(2-(S)-Amino-5-guanidino-pentanoyl)-piperazin-1-yl]-1,1-dimethyl-2-oxo-ethyl]-2,4-dichloro-3-(2,4-dimethyl-quinolin-8-yloxymethyl)-benzenesulfonamide]
0.631	CC[C@@](C)(NS(=O)(=O)c1ccc(Cl)c(COc2cccc3c(C)cc(C)nc23)c1Cl)C(=O)N1CCN(C(=O)C[C@@H](N)CCCNC(=N)N)CC1 [Example 70, (R)—N-[4-(3-(S)-Amino-6-guanidino-hexanoyl)-piperazine-1-carbonyl]-1-methyl-propyl]-2,4-dichloro-3-(2,4-dimethyl-quinolin-8-yloxymethyl)-benzenesulfonamide tris trifluoroacetate]
0.398	Cc1ccc2cccc(OCc3c(Cl)ccc(S(=O)(=O)NC(C)(C)C(=O)N4CCN(C(=O)[C@H](N)CCCNC(=N)N)CC4)c3Cl)c2n1 [Example 51, N-[2-[4-(2-(R)-Amino-5-guanidino-pentanoyl)-piperazin-1-yl]-1,1-dimethyl-2-oxo-ethyl]-2,4-dichloro-3-(2-methyl-quinolin-8-yloxymethyl)-benzenesulfonamide]

The next lines start with the compound.

Compound	Ki [nM]
CCN=C(NCC)NCCC[C@H](N)C(=O)N1CCN(C(=O)C2(NS(=O)(=O)c3ccc(Cl)c(COc4cccc5c(C)cc(C)nc45)c3Cl)CCCC2)CC1 [Example 44]	0.0794
Cc1ccc2cccc(OCc3c(Cl)ccc(S(=O)(=O)NC(C)(C)C(=O)N4CCN(C(=O)CC5CCNCC5)CC4)c3Cl)c2n1 [Example 25, N-{2-[4-2-(Piperidin-4-yl-acetyl)-piperazin-1-yl]-1,1-dimethyl-2-oxo-ethyl}-2,4-dichloro-3-(2-methyl-8-quinolinoxymethyl)-benzenesulfonamide bis trifluoroacetate]	0.537
CCN=C(NCC)NCCCC[C@H](N)C(=O)N1CCN(C(=O)C2(NS(=O)(=O)c3ccc(Cl)c(COc4cccc5c(C)cc(C)nc45)c3Cl)CCCC2)CC1 [Example 43, (2S)—N-(1-{4-[2-Amino-6-(N′,N″-diethyl-guanidino)-hexanoyl]-piperazine-1-carbonyl}-cyclopentyl)-2,4-dichloro-3-(2,4-dimethyl-quinolin-8-yloxymethyl)-benzenesulfonamide]	0.398
CCN=C(NCC)NCCC[C@H](N)C(=O)N1CCN(C(=O)C(C)(C)NS(=O)(=O)c2ccc(Cl)c(COc3cccc4ccc(C)nc34)c2Cl)CC1 [Example 41]	0.501
Cc1cc(C)c2cccc(OCc3c(Cl)ccc(S(=O)(=O)NC4(C(=O)N5CCC(C[N+](C)(C)CCCCC[N+](C)(C)C)CC5)CCCC4)c3Cl)c2n1 [Example 86, {5-[(1-{1-[2,4-Dichloro-3-(2,4-dimethyl-quinolin-8-yloxymethyl)-benzensulfonylamino]-cyclopentanecarbonyl}-piperidin-4-ylmethyl)-dimethyl-ammonium]-pentyl}-trimethyl-ammonium tris trifluoroacetate]	0.398
Cc1cc(C)c2cccc(OCc3c(Cl)ccc(S(=O)(=O)NC4(C(=O)N5CCC(N6CCN(C(=O)[C@@H](N)CCCNC(=N)N)CC6)CC5)CCCC4)c3Cl)c2n1 [Example 38]	0.501

Same assay, conditions: human B2 receptor expressed in human fibroblasts W138

pKi	Compound
9.9	Cc1cc(C)c2cccc(OCc3c(Cl)ccc(S(=O)(=O)NC4(C(=O)N5CCN(C(=O)[C@H](CCCCN)[N+](C)(C)C)CC5)CCCC4)c3Cl)c2n1 [Example 90, N-[1-[4-(2-(S)-Trimethylammonium-6-amino-hexanoyl)-piperazin-1-yl]-cyclopentyl]-2,4-dichloro-3-(2,4-dimethyl-quinolin-8-yloxymethyl)-benzenesulfonamide tris trifluoroacetate]
9.3	Cc1cc(C)c2cccc(OCc3c(Cl)ccc(S(=O)(=O)NC4(C(=O)N5CCN(C(=O)CCCCC[N+](C)(C)C)CC5)CCCC4)c3Cl)c2n1 [Example 91, N-{1-[4-(6-Trimethylammonium-hexanoyl)-piperazine-1-carbonyl]-cyclopentyl}-2,4-dichloro-3-(2,4-dimethyl-quinolin-8-yloxymethyl)-benzenesulfonamide bis trifluoroacetate]
9.2	Cc1cc(C)c2cccc(OCc3c(Cl)ccc(S(=O)(=O)NC(C)(C)C(=O)N4CCN(C(=O)[C@@H](N)CCCCN(C)C)CC4)c3Cl)c2n1 [Example 45, N-[2-[4-(2-(S)-Amino-6-dimethylamino-hexanoyl)-piperazin-1-yl]-1,1-dimethyl-2-oxo-ethyl]-2,4-dichloro-3-(2,4-dimethyl-quinolin-8-yloxymethyl)-benzenesulfonamide]

Compound	pKi
Cc1cc(C)c2cccc(OCc3c(Cl)ccc(S(=O)(=O)N[C@H](C)C(C)C(=O)N4CCN(C(=O)CN5CCN(CCNC(=N)N)CC5)CC4)c3Cl)c2n1.O=C(O)C(F)(F)F.O=C(O)C(F)(F)F.O=C(O)C(F)(F)F.O=C(O)C(F)(F)F (stereo partly shown) [Example 71]	9.4
N-[1-[4-(2-(S)-Trimethylammonium-6-trimethylammonium-hexanoyl)-piperazin-1-yl]-cyclopentyl]-2,4-dichloro-3-(2,4-dimethyl-quinolin-8-yloxymethyl)-benzenesulfonamide tris trifluoroacetate [Example 88]	9.7

Same assay, conditions: human B2 receptor expressed in human fibroblasts W138; read-out: pKi (converted)

Ki [nM]	Compound
0.501	Cc1cc(C)c2cccc(OCc3c(Cl)ccc(S(=O)(=O)NC(C)(C)C(=O)N4CCN(C(=O)C[C@@H](N)CCCN(C)C)CC4)c3Cl)c2n1 [Example 46, N-[2-[4-(3-(S)-Amino-6-dimethylamino-hexanoyl)-piperazin-1-yl]-1,1-dimethyl-2-oxo-ethyl]-2,4-dichloro-3-(2,4-dimethyl-quinolin-8-yloxymethyl)-benzenesulfonamide]
0.631	Cc1ccc2cccc(OCc3c(Cl)ccc(S(=O)(=O)NC(C)(C)C(=O)N4CCN(C(=O)C[C@@H](N)CCCN(C)C)CC4)c3Cl)c2n1 [Example 29, N-{2-[4-(3-(S)-Amino-6-dimethylamino-hexanoyl)-piperazin-1-yl]-1,1-dimethyl-2-oxo-ethyl}-2,4-dichloro-3-(2-methyl-8-quinolinoxymethyl)-benzenesulfonamide tris trifluoroacetate]

The remaining lines, values behind:

Compound	Ki [nM]
Cc1ccc2cccc(OCc3c(Cl)ccc(S(=O)(=O)NC(C)(C)C(=O)N4CCN(C(=O)CNC5CCNCC5)CC4)c3Cl)c2n1 [Example 26, N-{2-[4-[N-(4-Piperidyl)glycyl]-piperazin-1-yl]-1,1-dimethyl-2-oxo-ethyl}-2,4-dichloro-3-(2-methyl-8-quinolinoxymethyl)-benzenesulfonamide tris trifluoroacetate]	0.501
Cc1cc(C)c2cccc(OCc3c(Cl)ccc(S(=O)(=O)NC4(C(=O)N5CCN(C(=O)[C@@H](N)CC6CCNCC6)CC5)CCCC4)c3Cl)c2n1 [Example 81, N-{1-[4-(2-(S)Amino-3-piperidin-4-yl-propionyl)-piperazine-1-carbonyl]-cyclopentyl}-2,4-dichloro-3-(2,4-dimethyl-quinolin-8-yloxymethyl)-benzenesulfonamide tris trifluoroacetate]	0.631
